Assay results published in PMC12677653, “Inhibition of Tumor Lipogenesis and Growth by Peptide‐Based Targeting of SREBP Activation” (Advanced Science, 2025).

Assays:
[1] = system: lipid accumulation in tumor tissues; assay: Oil Red O staining of tumor tissues; assay type: in vivo, BALB/c athymic nude mice; settings: cryosections of Huh7 tumors, n = 4; peptide given as LNP 10 mg/kg iv; lenvatinib mesylate 2 mg/kg oral
Description: Representative micrographs are shown (scale bar: 20 µm). b,c) Cryosections of mouse tumor tissues were prepared for histological analysis. (b) Lipid accumulation was assessed by Oil Red O staining. Representative micrographs are shown (scale bar: 20 µm). (c) Apoptotic cells were detected by TUNEL assay. Representative micrographs are shown (scale bar: 20 µm). d,e) Quantitative analysis of (d) apoptotic areas (TUNEL‐positive regions) and (e) lipid droplet counts (Oil Red O‐positive particles) was performed. Data represent the mean ± SD (n = 4). Statistical significance was determined by one‐way analysis of variance (ANOVA). ** p < 0.01, **** p < 0.0001, ns, no significance.
Cryosections 6–8 µm in thickness were air‐dried and fixed with formaldehyde for 5–10 min. Then, the slides were placed in absolute propylene glycol for 2–5 min and stained with 0.5% Oil red O dye. After staining, the slides were rinsed, counterstained with Mayer's hematoxylin for 1 min, and mounted in glycerin.

[2] = system: Insig1 S207/Insig2 S151 phosphorylation; assay: Immunoblot of Insig1 S207/Insig2 S151 phosphorylation, Huh7; assay type: cell-based, human; settings: Huh7 cells, peptide 7.5 or 15 µM 1 h before IGF1 100 ng/mL
Description: Figure 1 The Insig1/2 loop 1 peptide binds to S90‐phosphorylated PCK1 and blocks PCK1‐mediated SREBP activation and tumor cell proliferation. Immunoblotting analyses were performed using the indicated antibodies; representative results from three independent experiments are shown (IP, immunoprecipitation; WB, western blot). a) Huh7 cells expressing various Insig1 (top) or Insig2 (bottom) truncation mutants were treated with or without IGF1 (100 ng mL^−1) for 1 h. b,c) Biolayer interferometry assays (Sartorius Octet) were employed to measure the binding affinity of Insig1/2 loop 1 peptide to GST‐PCK1 or GST‐PCK1 pS90 proteins. […] Statistical significance was determined by one‐way analysis of variance (ANOVA). g) Following pretreatment with Insig1/2 loop 1 peptide (15 µM) and IGF1 stimulation (100 ng mL^−1, 8 h), Huh7 cells were subjected to immunofluorescence analysis (scale bar: 10 µm). h) Quantitative PCR analysis of SREBP1 target gene GPAM in Huh7 cells pretreated with Insig1/2 loop 1 peptide (15 µM) and stimulated with IGF1 (100 ng mL^−1) for 10 h. […] Statistical significance was determined by one‐way analysis of variance (ANOVA). i) Quantitative PCR analysis of SREBP1 target gene FASN in Huh7 cells pretreated with Insig1/2 loop 1 peptide (15 µM) and stimulated with IGF1 (100 ng mL^−1) for 10 h. […]

With “RKKRRQRRRLYPCIDSHLGEPHKFKRE [Insig1/2 loop 1 peptide]” the “lipid accumulation in tumor tissues (Oil Red O)” value [1] was “reduced lipid accumulation in tumor tissues” and the “Insig1 S207/Insig2 S151 phosphorylation” value [2] was “markedly inhibited”.
